Source: US20260008801A1, “BIO-BASED SURFACTANTS DERIVED FROM CARBOHYDRATES” (COÖPERATIE KONINKLIJKE COSUN U.A., priority 2022, published 2026)
Like-named read-outs stand apart in the source and are kept apart here.

Key:
Assay type in all cases: physicochemical
[1] = Solubility in water (excess of compound in 4 ml demi water); conditions: for Solubility (%): Table E8; for Solubility: Table E5.2, water
Description: Solubility is preferably solubility in aqueous solution, more preferably solubility in water, most preferably solubility in demineralised water. A skilled person knows how to assess such solubility.
Solubility in water was determined by preparing mixtures of an excess of compound dispersed in 4 ml demi water using a vortex at maximum speed for 1 min. […] 1 ml of the mixture was concentrated in vacuo to yield a solid. The mass of the solid was determined in mg to calculate the solubility in percentage by dividing by ten.

[2] = Foaming abilities, 1% compound solutions shaken by hand; design: key to FOAM: −: no foam formation; +: low foam formation; ++: moderate foam formation; +++: strong foam formation
Description: Foaming abilities were evaluated at room temperature by shaking 1% compound solutions (2 ml) of pH 3, 7, and 12 by hand for 10 s. The pH of each solution was assessed with a pH meter at room temperature. […] The foam heights at the initial time were compared to one another after which the foaming abilities were classified according to no foam formation (−), low foam formation (+), moderate foam formation (++), and strong foam formation (+++).

[3] = Foaming power and stability, Ultra-Turrax, 0.4% aq. surfactant; conditions: for Foamability 1 min / Foamability 5 min / Foamability 30 min: Table E8; for Foamability 1 min: after 1 min; for Foamability 5 min: after 5 min; for Foamability 30 min: after 30 min; for Foamability (mL) after (min) 1 / Foamability (mL) after (min) 5 / Foamability (mL) after (min) 10: Table E5.2; for Foamability (mL) after (min) 1: foam volume after 1 min; for Foamability (mL) after (min) 5: foam volume after 5 min; for Foamability (mL) after (min) 10: foam volume after 10 min
Description: Foaming power was also tested at room temperature with 5 mL of 0.4% aq. surfactant (20 mg) solution in a 50 mL measuring cylinder. After performing the Ultra-Turrax (a registered trademark for a high-performance dispersing instrument) for 20 seconds (8000 rpm), the initial height of the foam was measured for foam height. (volume in mL). Every time step of, 1, 3, 5, 10, 30, 60 minutes was noted. In addition, after 24 hours the stability was checked. Particularly, foaming power and stability of the surfactants were performed using an IKA Ultra-Turrax T25 with an 18 G dispersing element. At room temperature, an aqueous solution of 5 mL 0.4% surfactant in a 50 mL measuring cylinder (2.20 cm diameter) was mixed with the Ultra-Turrax for 20 seconds at 8000 rpm. The foam height (volume in mL) was denoted for 0, 1, 3, 5, 10, 30, 60 min and 24 hours. In addition, after 24 hours the stability was checked.

[4] = Surface tension measurements, Wilhelmy plate (surface tension, CMC)
Description: Surface tension measurements were performed with a Biolin Scientific Sigma701 automatic tension meter equipped with a Wilhelmy plate made of platinum (±0.5 mN/m). […] The number of experimental points is related to the compound's/surfactant's solubility and available quantity. All compound/surfactant solutions were allowed to stand 12 h before being measured. The platinum plate was thoroughly cleaned with demi water and flame-dried before each measurement. The CMC of each compound/surfactant was determined at the minimum of a breakpoint of a conventional plot of surface tension versus compound/surfactant concentration. DCMC was obtained by acquiring the surface tension at the CMC. The pC20 value was determined by taking the minus log of the concentration compound/surfactant at a surface tension of 52 mN/m.

[5] = Table E6, N-oxide compounds, in Salt form
[6] = Table E4, room temperature, pH 7
[7] = Table E5, room temperature, pH 7
[8] = Table E2, galactaric acid amides
[9] = Table E2, room temperature, pH 7

CCCCCC[N+](C)([O-])C[C@H](O)[C@@H](O)[C@@H](O)CO (stereo partly drawn) [Compound 38, N-methylhexyl-L-arabinonamine oxide]
SOLUBILITY (H2O) [1, 5]: 19% | Solubility (%) [1]: 19% | FOAM ([2]; Table E6, in Salt form): − | Foamability 1 min [3]: 0.5 mL | Foamability 5 min [3]: 0 mL | Foamability 30 min [3]: 0 mL | CMC (%) ([4]; Table E6, in Salt form): 1.60% | SURFACE TENSION ([4]; Table E6, in Salt form): 49.275 mN/m | CMC (%) ([4]; Table E8): 1.30% | Surface tension (nM/m) ([4]; Table E8): 53.59 mN/m

CCCCCCCCN(C)C[C@H](O)[C@@H](O)[C@@H](O)CO [Compound 24, N-methyl-N-octyl-L-arabinamine]
SOLUBILITY (H2O) ([1]; Table E4): 0.9% | Solubility [1]: 0.9% | solubility, earlier measurements ([1]; earlier measurements, initially found): 0.25% | FOAM ([2]; Table E4, pH > 7): + | Foamability (mL) after (min) 1 [3]: 5 mL | Foamability (mL) after (min) 5 [3]: 4.5 mL | Foamability (mL) after (min) 10 [3]: 4 mL | CMC (%) ([4]; Table E4): 0.25% | SURFACE TENSION [4, 6]: 28.7 mN/m | CMC (%) ([4]; Table E5.2): 0.25% | Surface tension (nM/m) ([4]; Table E5.2): 28.7 mN/m

CCCCCCCC[N+](C)([O-])C[C@H](O)[C@@H](O)[C@@H](O)CO (stereo partly drawn) [Compound 39, N-methyloctyl-L-arabinonamine oxide]
SOLUBILITY (H2O) [1, 5]: 11% | Solubility (%) [1]: 11% | FOAM ([2]; Table E6, in Salt form): ++ | Foamability 1 min [3]: 2 mL | Foamability 5 min [3]: 2 mL | Foamability 30 min [3]: 0.5 mL | CMC (%) ([4]; Table E6, in Salt form): 0.55% | SURFACE TENSION ([4]; Table E6, in Salt form): 27.734 mN/m | CMC (%) ([4]; Table E8): 0.55% | Surface tension (nM/m) ([4]; Table E8): 27.73 mN/m

CCCCCCN(C)C[C@H](O)[C@@H](O)[C@@H](O)[C@H](O)C(=O)O [Compound 30, N-methyl-N-hexyl-D-galacturonic acid amine]
SOLUBILITY (H2O) ([1]; Table E5): 40% | Solubility [1]: 40% | FOAM ([2]; Table E5, PH > 7): ++ | Foamability (mL) after (min) 1 [3]: 0.2 mL | Foamability (mL) after (min) 5 [3]: 0 mL | Foamability (mL) after (min) 10 [3]: 0 mL | CMC (%) ([4]; Table E5): 2% | SURFACE TENSION [4, 7]: 60.6 mN/m | Surface tension (nM/m) ([4]; Table E5.2): 42.1 mN/m

CCCCCCN(C)C[C@H](O)[C@@H](O)[C@@H](O)CO [Compound 23, N-methyl-N-hexyl-L-arabinamine]
solubility in H2O [1]: 30% | SOLUBILITY (H2O) ([1]; Table E4): 30% | Solubility [1]: 30% | FOAM ([2]; Table E4, pH > 7): + | Foamability (mL) after (min) 1 [3]: 2 mL | Foamability (mL) after (min) 5 [3]: 0.2 mL | Foamability (mL) after (min) 10 [3]: 0 mL | CMC (%) ([4]; Table E4): 2% | SURFACE TENSION [4, 6]: 31.4 mN/m | CMC (%) ([4]; Table E5.2): 2% | Surface tension (nM/m) ([4]; Table E5.2): 31.4 mN/m

CCCCCCCCCC[N+](C)([O-])C[C@H](O)[C@@H](O)[C@@H](O)[C@H](O)C(=O)O (stereo partly shown) [Compound 42b]
SOLUBILITY (H2O) [1, 5]: 8% | Solubility (%) [1]: 8% | FOAM ([2]; Table E6, in Salt form): +++ | Foamability 1 min [3]: 6 mL | Foamability 5 min [3]: 6 mL | Foamability 30 min [3]: 5 mL | CMC (%) ([4]; Table E6, in Salt form): 0.08% | SURFACE TENSION ([4]; Table E6, in Salt form): 25.17 mN/m | CMC (%) ([4]; Table E8): 0.08% | Surface tension (nM/m) ([4]; Table E8): 25.17 mN/m

CCCCCCCCNC(=O)[C@H](O)[C@@H](O)[C@@H](O)[C@H](O)C(=O)O [Compound 11]
solubility in H2O [1]: 2% | SOLUBILITY (H2O) [1, 8]: ~2.0% | foam stability compared with SLES [2]: quite similar | foaming behaviour / foam creation, in words [2]: Foam appears | FOAM ([2]; Table E2): ++ | SURFACE TENSION [4]: 26 mN/m | concentration at which the surface tension is reached [4]: 0.29% | CMC (%) ([4]; Table E2): 0.17% | SURFACE TENSION [4, 9]: 26.0 mN/m

CCCCNC(=O)[C@H](O)[C@@H](O)[C@@H](O)[C@H](O)C(=O)O [Compound 09]
solubility in H2O [1]: 6% | SOLUBILITY (H2O) [1, 8]: >6% | FOAM ([2]; Table E2): − | SURFACE TENSION [4, 9]: 50.78 mN/m

CCCCCCNC(=O)[C@H](O)[C@@H](O)[C@@H](O)[C@H](O)C(=O)O [Compound 10]
solubility in H2O [1]: 2.5% | SOLUBILITY (H2O) [1, 8]: ~2.5% | FOAM ([2]; Table E2): − | SURFACE TENSION [4, 9]: 49.43 mN/m

CC(C)CNC(=O)[C@H](O)[C@@H](O)[C@@H](O)CO [Compound 05, 1-(N-isobutyl)-L-arabinonamide]
solubility in water, in words [1]: soluble | SOLUBILITY (H2O) ([1]; Table E1, arabinonamides): Yes | FOAM ([2]; Table E1): − | stable surface tension value at maximal concentration (micelle formation) ([4]; maximal concentration in water, means no micelles were formed): do not reach a stable surface tension value

CCCCCC[N+](C)([O-])C[C@H](O)[C@@H](O)[C@@H](O)[C@H](O)C(=O)O (stereo partly drawn) [Compound 41, N-methyl-N-hexyl-D-galacturonic acid amine oxide]
SOLUBILITY (H2O) [1, 5]: 17% | Solubility (%) [1]: 17% | FOAM ([2]; Table E6, in Salt form): − | Foamability 1 min [3]: 0.5 mL | Foamability 5 min [3]: 0 mL | Foamability 30 min [3]: 0 mL | CMC (%) ([4]; Table E6, in Salt form): 2.58% | SURFACE TENSION ([4]; Table E6, in Salt form): 37.727 mN/m | CMC (%) ([4]; Table E8): 2.60% | Surface tension (nM/m) ([4]; Table E8): 42.90 mN/m

CCCCCCCCCCCCNC[C@H](O)[C@@H](O)[C@@H](O)[C@H](O)C(=O)O [Compound 34, N-dodecyl-D-galacturonic acid amine, reference compound]
SOLUBILITY (H2O) ([1]; Table E5): 0.3% | Solubility [1]: 0.3% | FOAM ([2]; Table E5, pH not given): − | CMC (%) ([4]; Table E5): 0.1% | SURFACE TENSION [4, 7]: 30.7 mN/m

CCCCCCCC[N+](C)([O-])C[C@H](O)[C@@H](O)[C@@H](O)[C@H](O)C(=O)O (stereo partly drawn) [Compound 42, N-methyl-N-octyl-D-galacturonic acid amine oxide]
SOLUBILITY (H2O) [1, 5]: 10% | Solubility (%) [1]: 10% | FOAM ([2]; Table E6, in Salt form): +++ | Foamability 1 min [3]: 6 mL | Foamability 5 min [3]: 6 mL | Foamability 30 min [3]: 2 mL | CMC (%) ([4]; Table E6, in Salt form): 0.65% | SURFACE TENSION ([4]; Table E6, in Salt form): 42.89 mN/m | CMC (%) ([4]; Table E8): 0.65% | Surface tension (nM/m) ([4]; Table E8): 42.89 mN/m

CCCCCCCCCCCCN(C)C[C@H](O)[C@@H](O)[C@@H](O)[C@H](O)C(=O)O [Compound 32, N-methyl-N-dodecyl-D-galacturonic acid amine]
solubility in H2O [1]: 1% | SOLUBILITY (H2O) ([1]; Table E5): 1% | Solubility [1]: 1% | FOAM ([2]; Table E5, pH not given): +++ | stability in foam ([2]; whole pH range): enormous stability | Foamability (mL) after (min) 1 [3]: 4.5 mL | Foamability (mL) after (min) 5 [3]: 5 mL | Foamability (mL) after (min) 10 [3]: 3 mL | SURFACE TENSION [4]: 33.9 mN/m | CMC (%) ([4]; Table E5): 0.1% | SURFACE TENSION [4, 7]: 33.9 mN/m | CMC (%) ([4]; Table E5.2): 0.1% | Surface tension (nM/m) ([4]; Table E5.2): 33.9 mN/m | critical micelle concentration (CMC) ([4]; running text b302): 0.01%
